Measurements reported in patent US9078890B2, “Use of koumine and its homologues in preparation of medicament for treatment of autoimmune diseases of involved bones and joints” (priority 2011, dated 2015).
Marks after values point to notes of the source that are not given here.

How the values were obtained:
[1] = system: serum type II collagen antibody; test: Type II collagen-induced arthritis rat: serum type II collagen antibody (ELISA); format: in vivo, Wistar rat; settings: koumine 0.6, 3, 15 mg/kg intragastric once daily 10 days; after intervention finished; dose dependent
Experimental: (§1) Under aseptic conditions, 10 mg chicken type II collagen protein was fully mixed with 5 ml 10 mM glacial acetic acid solution, and stirred overnight in refrigerator at 4° C. to fully dissolve it. It was mixed with complete Freund's adjuvant in equal volume in ice bath to fully emulsify into an emulsion with a collagen concentration of 1 mg/ml.
(§2) Wistar rats are divided into a modeling group and a false modeling group. After the modeling group rats were narcotized with intraperitoneal injection of pentobarbital, the above emulsion was injected intracutaneously at 3 to 4 positions at back, tail root or the like, 0.3 ml for each, an primary immunity was carried out. After 7 days, a secondary immunity was carried out, the emulsifying agent complete Freund's adjuvant of initial immunity was replaced with incomplete Freund's adjuvant, 0.1 ml the emulsion was injected under sevoflurane inhalation anesthesia wherein the injection position is different from the last time. In false modeling group, the emulsion was replaced with solvent glacial acetic acid solution.
(§3) Successfully modeled rat in the modeling group were randomly divide into 5 groups: low, middle, high-dose koumine treatment group, positive control group, negative control group, 10 rats for each group. […]

adjuvant arthritis mice = test: Adjuvant arthritis mice: joint pathology damage (HE staining); format: in vivo, Kunming mice; settings: koumine 0.8, 4, 20 mg/kg intragastric; Day 19; dose dependent
Experimental: BCG was inactivated in water bath at 80° C., and fully emulsified along with complete Freund's adjuvant to form complete Freund's adjuvant emulsion containing 5 mg/ml BCG, preserved at 4° C., and shake well before use. The Kunming mice were divided into a modeling group and a false modeling group. According to the method recited in the literature [Rasool M, Sabina E P, Lavanya B. Anti-inflammatory effect of Spirulina fusiformis on adjuvant-induced arthritis in mice. Biol Pharm Bull. 2006, 29(12):2483-7], for the modeling group, the model was prepared by intradermal injection of 20 ul the emulsion under the plantar surface of right paws after the mice was narcotized; for the false modeling group, the emulsion was replaced with physiological saline. For the modeling group, the animals were screened on Day 8 after injection: the mice with the injected paw thickness increased >0.5 mm and thermal hyperalgesia occurred (paw thermal withdrawal latency <8 second) were selected as experimental subjects. The selected mice were divided into 5 groups randomly: low, middle, high dose treatment group (0.8, 4, 20 mg/kg); indomethacin positive control group (10 mg/kg); negative control group (physiological saline), each comprising 12 animals. […]

[2] = system: type II collagen-induced arthritis rat; test: Type II collagen-induced arthritis rat: thermal hyperalgesia (thermal withdrawal latency); format: in vivo, Wistar rat; settings: for Thermal stimulus withdrawal latency, Intervention Day 2: intervention Day 2, 1 hour after administration; for Thermal stimulus withdrawal latency, Intervention Day 4: intervention Day 4, 1 hour after administration; for Thermal stimulus withdrawal latency, Intervention Day 6: intervention Day 6, 1 hour after administration; for Thermal stimulus withdrawal latency, Intervention Day 8: intervention Day 8, 1 hour after administration; for Thermal stimulus withdrawal latency, Intervention Day 10: intervention Day 10, 1 hour after administration
Experimental: as §1, §2
(§4) Successfully modeled rat in the modeling group were randomly divide into 5 groups: low, middle, high-dose koumine treatment group, positive control group, negative control group, 10 rats for each group. Beginning from Day 21 after modeling, corresponding intervention was carried out as following in 10 days continuously: 0.6, 3, 15 mg/kg koumine were intragastrically administrated to the low, middle, high-dose koumine treatment group respectively, 1 time every day; 1 mg/kg amethopterin was administrated to the positive control group, 1 time every 3 days, equal volume of physiological saline was administrated for the remained days; equal volume of physiological saline was administrated to the negative control group.
(§5) 1 hour after intragastric administration, the thermal withdrawal latency of each group was determined by the photo-thermal dolorimeter; the mechanical pain threshold of rats of each group was determined by Von-frey electromechanical pain threshold detector, thus the condition of thermal hyperalgesia and mechanical hyperalgesia of rats of each group was observed.

[3] = system: type II collagen-induced arthritis rat; test: Type II collagen-induced arthritis rat: joint pathological change, HE staining and pathological score; format: in vivo, Wistar rat; settings: koumine 0.6, 3, 15 mg/kg intragastric; 10 days after intervention
Experimental: as §1
as §2, with “solution. […]” for “solution.”
The rats of each group were killed 10 days after intervention, the ankle joints of left hind limbs were picked off to conduct HE staining, and the pathological change was observed and scored. […]

in vivo = settings: mouse, sc
[4] = system: type II collagen-induced arthritis rat; test: Type II collagen-induced arthritis rat: joint pathological change, X-ray; format: in vivo, Wistar rat; settings: high dose and middle dose of koumine (15 and 3 mg/kg); 9 days after intervention
Experimental: as §1, §2, §3

[5] = system: type II collagen-induced arthritis rat; test: Type II collagen-induced arthritis rat: condition and body weight; format: in vivo, Wistar rat; settings: for Body weight before intervention: from Day 21 after modeling for 10 days
Experimental: as §1, §2, §4

[6] = system: type II collagen-induced arthritis rat; test: Type II collagen-induced arthritis rat: mechanical hyperalgesia (Von-frey mechanical pain threshold); format: in vivo, Wistar rat; settings: koumine 0.6, 3, 15 mg/kg intragastric; dose-effect relationship
Experimental: as §1
as §2, with “In false modeling group, the emulsion was replaced with solvent glacial acetic acid solution.” left out
as §5

[7] = koumine 0.6 mg/kg intragastric once daily
[8] = koumine 3 mg/kg intragastric once daily
[9] = koumine 15 mg/kg intragastric once daily
[10] = koumine 0.6 mg/kg intragastric once daily from Day 21
[11] = koumine 3 mg/kg intragastric once daily from Day 21
[12] = koumine 15 mg/kg intragastric once daily from Day 21

C=CC12CN(C)C3CC14C(=Nc1ccccc14)C1CC2C3CO1 (stereo not drawn) [Koumine]
Effect on serum type II collagen antibody level (FIG. 5) [1]: significantly antagonistic effect on type II collagen antibody level increase
Effect on joint pathology damage, HE staining (FIG. 3) (adjuvant arthritis mice): can improve the inflammatory cell infiltration, synovial hyperplasia, bone destruction
Thermal stimulus withdrawal latency, Before intervention [2, 7]: 7.50 ± 1.34 s
Thermal stimulus withdrawal latency, Intervention Day 2 [2, 7]: 7.81 ± 1.39 s
Thermal stimulus withdrawal latency, Intervention Day 4 [2, 7]: 8.42 ± 1.24 s
Thermal stimulus withdrawal latency, Intervention Day 6 [2, 7]: 10.30 ± 0.73**^★ second
Thermal stimulus withdrawal latency, Intervention Day 8 [2, 7]: 8.96 ± 0.81 s
Thermal stimulus withdrawal latency, Intervention Day 10 [2, 7]: 8.62 ± 2.21 s
Thermal stimulus withdrawal latency, Before intervention [2, 8]: 8.03 ± 1.98 s
Thermal stimulus withdrawal latency, Intervention Day 2 [2, 8]: 8.07 ± 1.86 s
Thermal stimulus withdrawal latency, Intervention Day 4 [2, 8]: 9.16 ± 1.18 s
Thermal stimulus withdrawal latency, Intervention Day 6 [2, 8]: 11.18 ± 2.03**^★ second
Thermal stimulus withdrawal latency, Intervention Day 8 [2, 8]: 10.40 ± 1.74 s
Thermal stimulus withdrawal latency, Intervention Day 10 [2, 8]: 11.62 ± 1.21**^★ second
Thermal stimulus withdrawal latency, Before intervention [2, 9]: 7.68 ± 2.48 s
Thermal stimulus withdrawal latency, Intervention Day 2 [2, 9]: 9.41 ± 0.68 s
Thermal stimulus withdrawal latency, Intervention Day 4 [2, 9]: 10.82 ± 1.07 s
Thermal stimulus withdrawal latency, Intervention Day 6 [2, 9]: 12.98 ± 1.13**^★ second
Thermal stimulus withdrawal latency, Intervention Day 8 [2, 9]: 13.44 ± 1.72 s
Thermal stimulus withdrawal latency, Intervention Day 10 [2, 9]: 13.87 ± 1.26**^★ second
Effect on thermal stimulus withdrawal latency (summary of Table 3) ([2]; koumine 0.6, 3, 15 mg/kg intragastric, dose-effect relationship): can significantly extend the thermal stimulus withdrawal latency
Scores of pathologic change degree of ankle joints, HE staining (FIGS. 9 and 10) [3]: significantly decrease the scores of pathologic change degree of ankle joints
LD50 (in vivo): 99 mg/kg
Joint pathological change, X-ray images (FIG. 8) [4]: relieve the bone destruction of ankle joint
Body weight after intervention, Day 7 [5, 10]: 154.6 ± 7.20 g
Body weight after intervention, Day 14 [5, 10]: 173.1 ± 7.93 g
Body weight after intervention, Day 21 [5, 10]: 194.1 ± 16.67 g
Body weight after intervention, Day 31 [5, 10]: 235.8 ± 5.00 g
Body weight before intervention [5, 7]: 129.9 ± 8.60 g
Body weight after intervention, Day 7 [5, 11]: 145.1 ± 9.24 g
Body weight after intervention, Day 14 [5, 11]: 173.7 ± 4.84 g
Body weight after intervention, Day 21 [5, 11]: 202.3 ± 9.57 g
Body weight after intervention, Day 31 [5, 11]: 240.2 ± 6.85 g
Body weight before intervention [5, 8]: 126.5 ± 7.92 g
Body weight after intervention, Day 7 [5, 12]: 148.7 ± 8.73 g
Body weight after intervention, Day 14 [5, 12]: 176.9 ± 3.86 g
Body weight after intervention, Day 21 [5, 12]: 205.1 ± 6.94 g
Body weight after intervention, Day 31 [5, 12]: 260.3 ± 11.79 g
Body weight before intervention [5, 9]: 127.8 ± 7.45 g
Condition of rats (food intake, activity, fur, emaciation) ([5]; koumine 0.6, 3, 15 mg/kg intragastric once daily): can be improved in a dose dependent manner
Effect on body weight of type II collagen-induced arthritis rats (summary of Table 2) ([5]; koumine 0.6, 3, 15 mg/kg intragastric, robustness-promoting effect on high-dose group): antagonistic effect on body weight reducing
Effect on mechanical pain threshold (summary of Table 4) [6]: improve mechanical pain threshold
